Measured values: patent US6737383B1, “Herbicidal oxadiazolidines” (priority 1999, dated 2004)

Tests used:
[1] = tested on: Italian ryegrass; experiment: Test E Italian ryegrass; assay type: in vivo, Lolium multiflorum; conditions: Preemergence
[2] = tested on: winter barley; experiment: Test E winter barley; assay type: in vivo, Hordeum vulgare; conditions: Preemergence
[3] = tested on: winter wheat; experiment: Test E winter wheat; assay type: in vivo, Triticum aestivum; conditions: Postemergence; for Plant response rating, Wheat (winter): 0 to 100 scale
How it was run: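 Greenhouse test: for postemergence, foliar application at 1- to 4-leaf stage; compound in non-phytotoxic solvent with surfactant. Rating is visual, relative to untreated controls, about 21 to 28 days after treatment.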

[4] = tested on: sugar beet; experiment: Test B pre/postemergence sugar beet; assay type: in vivo, Beta vulgaris; conditions: for Sugarbeets plant response rating (0 to 10 scale): 0 is no effect
How it was run: (§1)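 Response is a visual 0-to-10 score relative to untreated plants, where 0 means no effect and 10 means complete control, taken twelve to sixteen days after application. Treatments went onto soil at planting and onto foliage of 1- to 4-leaf plants, using a surfactant-containing non-phytotoxic solvent.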

[5] = tested on: blackgrass; experiment: Test E blackgrass; assay type: in vivo, Alopecurus myosuroides; conditions: Preemergence
[6] = tested on: wild oat; experiment: Test E wild oat; assay type: in vivo, Avena fatua; conditions: Preemergence
[7] = tested on: rape; experiment: Test B pre/postemergence rape; assay type: in vivo, Brassica napus; conditions: for Rape plant response rating (0 to 10 scale): 0 is no effect
How it was run: as §1

[8] = tested on: green foxtail; experiment: Test E green foxtail; assay type: in vivo, Setaria viridis; conditions: Preemergence
[9] = tested on: corn; experiment: Test B pre/postemergence corn; assay type: in vivo, Zea mays; conditions: for Corn plant response rating (0 to 10 scale): 0 is no effect
How it was run: as §1

[10] = tested on: duck salad; experiment: Test B flood test duck salad; assay type: in vivo, Heteranthera limosa
How it was run: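 Read-out is a visual response score from 0 (no effect) to 10 (complete control), assigned by comparison with untreated controls. Treatment was applied at the 2-leaf stage, and plants stayed in the greenhouse for twelve to sixteen days before scoring.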

[11] = tested on: winter wheat; experiment: Test E winter wheat; assay type: in vivo, Triticum aestivum; conditions: Preemergence
[12] = Rate 125 g/ha, 0 to 100 scale (0 no effect, 100 complete control)
[13] = Postemergence, Rate 125 g/ha, scale of 0 to 10 where 0 is no effect and 10 is complete control
[14] = Preemergence, Rate 62 g/ha, scale 0 to 10 (0 no effect, 10 complete control)
[15] = Preemergence, Rate 125 g/ha, 10 is complete control
[16] = Preemergence, Rate 250 g/ha, scale 0 to 10, 0 is no effect, 10 is complete control
[17] = Preemergence, Rate 500 g/ha, scale 0 to 10 (0 no effect, 10 complete control)
[18] = Rate 62 g/ha, Postemergence, scale of 0 to 10 where 0 is no effect and 10 is complete control
[19] = Rate 250 g/ha, Postemergence, scale 0 to 10, 0 is no effect, 10 is complete control
[20] = Rate 500 g/ha, Postemergence, scale 0 to 10
[21] = Postemergence (flood test species), Rate 125 g/ha, scale of 0 to 10 where 0 is no effect and 10 is complete control
[22] = Rate 62 g/ha, Postemergence section, flood test species, scale of 0 to 10 where 0 is no effect and 10 is complete control
[23] = Rate 250 g/ha, Postemergence (flood test), scale 0 to 10, 0 is no effect, 10 is complete control
[24] = Rate 2000 g/ha, 0 to 100 scale, 0 is no effect and 100 is complete control
[25] = Rate 500 g/ha, 0 to 100 scale where 0 is no effect and 100 is complete control
[26] = Rate 1000 g/ha, 0 to 100 scale where 0 is no effect and 100 is complete control
[27] = Postemergence, Rate 1000 g/ha, scale 0 to 10 (0 no effect, 10 complete control)
[28] = Preemergence, Rate 62 g/ha, scale of 0 to 10 where 0 is no effect and 10 is complete control
[29] = Rate 1000 g/ha, Preemergence, scale 0 to 10 (0 no effect, 10 complete control)
[30] = Rate 2000 g/ha, Postemergence, scale 0 to 10
[31] = Rate 2000 g/ha, Preemergence, scale 0 to 10

## CC(C)N(C(=O)n1oc(=O)n(C)c1=O)c1ccc(Cl)cc1 [Compound 137]
[1]; [12]
  Plant response rating, I. Ryegrass: 20
[1]; Rate 250 g/ha
  I. Ryegrass plant response rating (0 to 100 scale): 50
[2]; [12]
  Plant response rating, Barley (winter): 20
[2]; Rate 250 g/ha
  Barley (winter) plant response rating (0 to 100 scale): 20
[3]; Rate 125 g/ha
  Plant response rating, Wheat (winter): 10
[3]; Rate 250 g/ha, 0 to 100 scale where 0 is no effect and 100 is complete control
  Wheat (winter) plant response rating: 20
[4]; [13]
  Sugarbeets plant response rating: 3
[4]; [14]
  Sugarbeets plant response rating: 6
[4]; [15]
  Sugarbeets plant response rating (0 to 10 scale): 10
[4]; [16]
  Sugarbeets plant response rating: 10
[4]; [17]
  Sugarbeets plant response rating: 10
[4]; [18]
  Sugarbeets plant response rating: 3
[4]; [19]
  Plant response rating, Sugarbeets: 5
[4]; [20]
  Sugarbeets plant response rating: 6
[5]; [12]
  Plant response rating, Blackgrass: 20
[5]; Rate 250 g/ha
  Blackgrass plant response rating (0 to 100 scale): 30
[6]; [12]
  Plant response rating, Wild oat: 20
[6]; Rate 250 g/ha
  Wild oat plant response rating (0 to 100 scale): 10
[7]; [14]
  Rape plant response rating: 0
[7]; [15]
  Rape plant response rating (0 to 10 scale): 4
[7]; [16]
  Rape plant response rating: 10
[7]; [17]
  Rape plant response rating: 10
[7]; [18]
  Rape plant response rating: 0
[7]; [19]
  Plant response rating, Rape: 6
[7]; [20]
  Rape plant response rating: 7
[8]; [12]
  Plant response rating, Green foxtail: 15
[8]; Rate 250 g/ha
  Green foxtail plant response rating (0 to 100 scale): 50
[9]; [13]
  Corn plant response rating: 0
[9]; [14]
  Corn plant response rating: 0
[9]; [15]
  Corn plant response rating (0 to 10 scale): 0
[9]; [16]
  Corn plant response rating: 0
[9]; [17]
  Corn plant response rating: 4
[9]; [18]
  Corn plant response rating: 0
[9]; [19]
  Plant response rating, Corn: 3
[9]; [20]
  Corn plant response rating: 5
[10]; [21]
  Ducksalad plant response rating: 0
[10]; Rate 31 g/ha, Postemergence section (flood test species), scale 0 to 10
  Ducksalad plant response rating: 0
[10]; [22]
  Ducksalad plant response rating: 0
[10]; [23]
  Plant response rating, Ducksalad: 0
[11]; [12]
  Plant response rating, Wheat (winter): 20
[11]; Rate 250 g/ha
  Wheat (winter) plant response rating (0 to 100 scale): 30

## CC(C)N(C(=O)n1oc(=O)n(N(C)c2ccccc2)c1=O)c1ccc(F)cc1 [Compound 177]
[1]; [24]
  Plant response rating, I. Ryegrass: 65
[1]; [25]
  Plant response rating, I. Ryegrass: 60
[1]; [26]
  Plant response rating, I. Ryegrass: 60
[2]; [24]
  Plant response rating, Barley (winter): 80
[2]; [25]
  Plant response rating, Barley (winter): 60
[2]; [26]
  Plant response rating, Barley (winter): 70
[3]; Rate 1000 g/ha, 0 is no effect and 100 is complete control
  Plant response rating, Wheat (winter): 65
[3]; Rate 2000 g/ha, 0 is no effect and 100 is complete control
  Plant response rating, Wheat (winter): 70
[3]; Rate 500 g/ha, 0 is no effect, 100 is complete control
  Plant response rating, Wheat (winter): 70
[4]; [13]
  Sugarbeets plant response rating: 0
[4]; [27]
  Sugarbeets plant response rating: 0
[4]; [28]
  Sugarbeets plant response rating: 0
[4]; [15]
  Sugarbeets plant response rating (0 to 10 scale): 0
[4]; [16]
  Sugarbeets plant response rating: 0
[4]; [17]
  Sugarbeets plant response rating: 0
[4]; [18]
  Sugarbeets plant response rating: 0
[4]; [19]
  Plant response rating, Sugarbeets: 0
[4]; [20]
  Sugarbeets plant response rating: 0
[4]; [29]
  Plant response rating, Sugarbeets: 0
[4]; [30]
  Sugarbeets plant response rating: 0
[4]; [31]
  Sugarbeets plant response rating: 0
[5]; [24]
  Plant response rating, Blackgrass: 60
[5]; [25]
  Plant response rating, Blackgrass: 60
[5]; [26]
  Plant response rating, Blackgrass: 60
[6]; [24]
  Plant response rating, Wild oat: 70
[6]; [25]
  Plant response rating, Wild oat: 80
[6]; [26]
  Plant response rating, Wild oat: 80
[7]; [13]
  Rape plant response rating: 0
[7]; [27]
  Rape plant response rating: 0
[7]; [28]
  Rape plant response rating: 0
[7]; [15]
  Rape plant response rating (0 to 10 scale): 0
[7]; [16]
  Rape plant response rating: 0
[7]; [17]
  Rape plant response rating: 0
[7]; [18]
  Rape plant response rating: 0
[7]; [19]
  Plant response rating, Rape: 0
[7]; [20]
  Rape plant response rating: 0
[7]; [29]
  Plant response rating, Rape: 0
[7]; [30]
  Rape plant response rating: 3
[7]; [31]
  Rape plant response rating: 0
[8]; [24]
  Plant response rating, Green foxtail: 100
[8]; [25]
  Plant response rating, Green foxtail: 60
[8]; [26]
  Plant response rating, Green foxtail: 85
[9]; [13]
  Corn plant response rating: 0
[9]; [27]
  Corn plant response rating: 0
[9]; [28]
  Corn plant response rating: 0
[9]; [15]
  Corn plant response rating (0 to 10 scale): 0
[9]; [16]
  Corn plant response rating: 0
[9]; [17]
  Corn plant response rating: 0
[9]; [18]
  Corn plant response rating: 0
[9]; [19]
  Plant response rating, Corn: 0
[9]; [20]
  Corn plant response rating: 0
[9]; [29]
  Plant response rating, Corn: 0
[9]; [30]
  Corn plant response rating: 0
[9]; [31]
  Corn plant response rating: 0
[10]; [21]
  Ducksalad plant response rating: 0
[10]; [22]
  Ducksalad plant response rating: 0
[10]; [23]
  Plant response rating, Ducksalad: 2
[10]; Rate 250 g/ha, Pre-emergence, flood-test species, scale 0 to 10, 0 is no effect, 10 is complete control
  Ducksalad plant response rating: 0
[10]; Rate 500 g/ha, headed Pre-emergence (flood test species), scale 0 to 10 (0 no effect, 10 complete control)
  Plant response rating, Ducksalad: 0
[10]; Rate 500 g/ha, listed under Postemergence (flood test species), scale 0 to 10
  Ducksalad plant response rating: 2
[10]; Rate 1000 g/ha, Pre-emergence (as headed), scale 0 to 10
  Ducksalad plant response rating: 0
[10]; Rate 2000 g/ha, Pre-emergence (as headed), scale 0 to 10
  Ducksalad plant response rating: 0
[11]; [24]
  Plant response rating, Wheat (winter): 70
[11]; [25]
  Plant response rating, Wheat (winter): 70
[11]; [26]
  Plant response rating, Wheat (winter): 50
